Assay results as given in the supplement of paper PMC8837787.

Test system: Saccharomyces cerevisiae ABC16-Green Monster
Assay: growth inhibition at single dose (up to 150 µM), below the 70% cut-off for dose-response; higher = more potent
Details: 18 h; 30 °C; YPD
Method in brief: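 The entry is percent growth inhibition of drug-sensitive S. cerevisiae ABC16-Green Monster cells. After overnight growth in YPD at 30 °C, cells were diluted to OD600 0.1–0.2 and exposed to each library compound at 150 µM in 200 µl per well, in biological duplicates with untreated cultures beside them, and OD600 was read at 0 h and after 18 h at 30 °C. Any compound under 70% in both replicates was not carried to dose-response.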

SMILES | growth inhibition at single dose
Cc1ccc(CNC(=O)c2ccc(/C=C3\SC(=O)NC3=O)cc2)cc1 | < 70%
Cc1sc(NC(=O)c2ccccc2)c(C(c2cccs2)N2CCN(c3ccccc3)CC2)c1C (centres undefined) | < 70%
CN(C)CCNc1cc(-c2ccccc2)nc2ccccc12 | < 70%
CN(C)CCCNCc1ccc(-c2ccc(F)c(Cl)c2)o1 | < 70%
Cc1ccc(C(=O)NC(C)C)n1C | < 70%
CCS(=O)(=O)N(Cc1ccco1)Cc1cc2ccc(C)cc2nc1O | < 70%
CC1CC1C(=O)NC1CCN(CC2(c3ccccc3)CCCCC2)CC1 (centres undefined) | < 70%
O=C(NC(c1ccccc1)c1ccc2cccnc2c1O)c1ccccc1 (centres undefined) | < 70%
COc1ccc(O)c(C(=O)c2cc(Cl)c3nc4ccccc4c(=O)n3c2)c1 | < 70%
CC1(c2ccccc2)Nc2ccccc2-c2nc3ccccc3n21 (centres undefined) | < 70%
CNC(=O)c1nn(C)c2c1C(C)(C)Cc1cnc(Nc3ccc(N4CCN(C)CC4)cc3)nc1-2 | < 70%
COc1cccc(/C=C/c2n[nH]c(=O)c(C#N)c2C)c1 | < 70%
Cc1cc(C)c2cc(C(=O)NC3CCCCCCC3)[nH]c2c1 | < 70%
CC(=O)NC[C@H]1CN(c2ccc(N3CCSCC3)c(F)c2)C(=O)O1 | < 70%
CCOc1ccc2nc(C)cc(Nc3ccc(N(C)C)cc3)c2c1 | < 70%
CCCOc1ccc(/C=N/NC(=S)Nc2ccccc2[N+](=O)[O-])c(O)c1 | < 70%
CC(C)=CCN1CCC(C(=O)Nc2ccc(-c3nc4ccccc4[nH]3)cc2)CC1 | < 70%
Cc1ccc(Nc2nc(NCCO)c3ccccc3n2)cc1C | < 70%
COc1ccc(-c2cc(NC(=O)c3ccc(F)cc3Cl)ccc2OC)cc1 | < 70%
COc1ccc(CCN2CCC(CN(C)Cc3cnn(-c4ccccc4)c3)CC2)cc1 | < 70%
COc1ccc(CCn2c(=N)c(C(=O)NCc3cccnc3)cc3c(=O)n4cccc(C)c4nc32)cc1 | < 70%

SMILES | growth inhibition at single dose
COc1ccccc1CNC(=O)CCn1c(=O)[nH]c2ccccc2c1=O | < 70%
CC(C)(C)c1nc(-c2ccc(N)cc2)no1 | < 70%
C/N=c1\scc(-c2ccco2)n1/N=C/c1sccc1C | < 70%
Cc1cc(N2CCN(C3CCCC3)CC2)n2c(nc3ccccc32)c1C#N | < 70%
COc1ccc(-c2csc3ncnc(Sc4nnc(-c5cccc(C)c5)n4CC(N)=O)c23)cc1 | < 70%
O=C(c1ccc(NCCO)cc1)C1C[C@H]1c1ccc(Cl)cc1 (some centres undefined) | < 70%
CCS(=O)(=O)c1ncc(Cl)c(C(=O)Nc2ccccc2C(F)(F)F)n1 | < 70%
CCN(CC)CCCCCCNc1cc(OC)cc2c(C)ccnc12 | < 70%
COc1ccc(OC)c(C2C3=C(CC(C)(C)CC3=O)N(c3ccc(Cl)c(Cl)c3)C3=C2C(=O)CC(C)(C)C3)c1 | < 70%
FC(F)(F)c1nc(N2CCN(c3ccncc3)CC2)c2ccccc2n1 | < 70%
Cc1nn(Cc2ccccc2)c(Cl)c1C(=O)NC1CCCCCC1 | < 70%
c1ccc2cc(OCCNc3ncnc4sccc34)ccc2c1 | < 70%
O=C(NCc1ccco1)C1CCN(S(=O)(=O)c2ccc(Br)cc2)CC1 | < 70%
Cc1cc(NC(=O)c2ccc(Oc3ccc(Cl)cc3O)o2)no1 | < 70%
CCCCCCn1c(=N)n(CC(O)COc2cccc(C)c2)c2ccccc21 (centres undefined) | < 70%
CC(=O)c1c[nH]c(C(=O)OCC(=O)NCCc2ccc(C(C)C)cc2)c1 | < 70%
CNc1snc(C)c1C(=O)OCc1csc(-c2ccccc2)n1 | < 70%
CC(=O)c1c(C)[nH]c(C(=O)Nc2nc3ccccc3[nH]2)c1C | < 70%
COc1ccc(NC(=O)C2c3ccccc3C(=O)N(CC(C)C)C2c2cccs2)cc1 (centres undefined) | < 70%
CC(C)(C)c1ccc(C(=O)NCCOc2ccccc2Cl)cc1 | < 70%
COc1cccn2c(C(=O)N3CCCCC3)c(C(F)(F)F)nc12 | < 70%

SMILES | growth inhibition at single dose
O=C(C1CCN(c2cc(-n3cccc3)ncn2)CC1)N1CCc2ccccc2C1 | < 70%
FC(F)(F)c1ccc(Nc2nnnc3ccccc23)cc1 | < 70%
OC(CNC1CCCCC1)Cn1c2ccccc2c2ccccc21 (centres undefined) | < 70%
CCN(CC)S(=O)(=O)c1ccc(Cl)c(C(=O)Nc2ccc3nc(C)sc3c2)c1 | < 70%
CN(C)c1ccc(N=Cc2ccc(N3CCOCC3)cc2)cc1 | < 70%
CC(=O)O[C@H]1CC[C@]2(C)C3CC[C@]4(C)C(C5=CC(=O)OC5)CC[C@]4(O)C3CC[C@@H]2C1 (some centres undefined) | < 70%
O=C(O)C1Cc2c([nH]c3ccccc23)C(c2ccc(Cl)cc2Cl)N1 (centres undefined) | < 70%
COc1ccc(CN=C2NN=C(c3cc4ccccc4o3)CS2)cc1 | < 70%
CCc1nc2ccc(Cl)cn2c1C(=O)NCc1ccc(N2CCC(c3ccc(OC(F)(F)F)cc3)CC2)cc1 | < 70%
c1ccc(NCCNc2nc(-c3ccncc3)nc3ccccc23)nc1 | < 70%
CC(c1ccc(-c2ccccc2)c(F)c1)c1nn2c(-c3ccco3)nnc2s1 (centres undefined) | < 70%
O=C(Nc1ccc(N2CCCCCC2)cc1)c1ccc[nH]1 | < 70%
CC(C)(C)C(=O)N(CCCCCCN1C[C@H](O)[C@@H](O)[C@H](O)[C@H]1CO)C1CCCCCC1 | < 70%
O=C(Nc1nc2c(s1)CCCC2)c1cc(F)c(F)c(F)c1F | < 70%
O=C(NC1=NCCS1)c1sc2cc(F)ccc2c1Cl | < 70%
O=C(NCc1ccc(N2CCCC2=O)cc1)c1cccnc1OCC(F)(F)F | < 70%
CNc1nc(SCCS(=O)(=O)c2ccccc2)nc2ccccc12 | < 70%
CC(C)n1ncc2cc(C(=O)Nc3nc4c(s3)CCCC4)cnc21 | < 70%
COc1ccc(-c2cnc3ccc(NCc4ccc(S(N)(=O)=O)cc4)nn23)cn1 | < 70%
O=C(C1CCCCC1)N1CC(=O)N2CCc3ccccc3C2C1 (centres undefined) | < 70%
Cc1cc(-c2nc(=O)c3ccccc3[nH]2)c(C)n1CC(C)C | < 70%

SMILES | growth inhibition at single dose
COc1nc(Nc2ccc(C(C)C)cc2)nc(OC)n1 | < 70%
Brc1cnc2nc(-c3ccccc3)[nH]c2c1 | < 70%
Cc1c(C)c(C)c(S(=O)(=O)Nc2ccc3c[nH]nc3c2)c(C)c1C | < 70%
Cc1cc(=O)nc(N/N=C/c2c(C)nn(-c3cccc(C(F)(F)F)c3)c2Cl)[nH]1 | < 70%
Cc1cc(C(=O)Cn2c(CO)nc3ccccc32)c(C)n1Cc1ccco1 | < 70%
CCOC(=O)c1c(C)[nH]c(C(=O)CSc2nnc(C3CC3)n2N)c1C | < 70%
N#C/C(=N\Nc1cccc(Cl)c1)C(=O)c1cc(-c2ccccc2)c(C(F)(F)F)s1 | < 70%
Cc1ccc(-c2cc3nc4c(c(O)n3n2)CCCC4)cc1 | < 70%
O=C(Nc1cccc(-c2ccc(NCCCN3CCCC3)nc2)c1)c1ccccc1 | < 70%
O=C(c1cnn(C(=O)c2nn(-c3ccc(Cl)cc3)cc2O)c1)c1ccccc1O | < 70%
CNc1nnc(Sc2ncnc3ccsc23)s1 | < 70%
Cc1c(C)n(CC(O)CNC2CCCCC2C)c2ccccc12 (centres undefined) | < 70%
CC(C)(C)CC(C)(C)NCC(O)COc1ccc2c(c1)CCC2 (centres undefined) | < 70%
c1ccc(C[C@@H]2CN(c3nccc(Oc4ccc(-n5ccnc5)cc4)n3)CCN2)cc1 | < 70%
Clc1ccc(-n2cc(COc3ccnc4ccccc34)nn2)cc1 | < 70%
Cc1ccc(-c2csc(Nc3ccccn3)n2)c(C)c1 | < 70%
COc1cccc(NC(=O)c2c(NC(=O)c3cccnc3)sc3c2CCC3)c1 | < 70%
CN(C)CCNc1nc(-c2ccco2)c2c(c1C#N)CCCC2 | < 70%
O=C1c2ccccc2-c2nnc(-c3ccc(Br)cc3)cc21 | < 70%
CC1S/C(=C\c2nc3ccccc3s2)NC1=O (centres undefined) | < 70%
COc1ccc(C2NCCc3c2[nH]c2ccccc32)cc1CN1CCN(c2ccc(F)cc2)CC1 (centres undefined) | < 70%
